According to ChEMBL document CHEMBL1201862, “PubChem BioAssay data set” (2004):
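Assay format: 96-well plates, 48-hour exposure. GI50: concentration for 50% inhibition of growth.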 Active and inactive are the calls of the source. No stated cut-off is given here; in the data, active = GI50 up to about 1.1 µM and inactive = higher.

Tests used:
Test in all cases: growth of human tumour cells (NCI), 48 h
[1] = system: 786-0
[2] = system: A549
[3] = system: ACHN
[4] = system: CAKI-1
[5] = system: EKVX
[6] = system: HOP-62
[7] = system: M14
[8] = system: NCI-H226
[9] = system: OVCAR-4
[10] = system: SK-MEL-2
[11] = system: SNB-75
[12] = system: UACC-257
[13] = system: DU-145
[14] = system: LOX IMVI
[15] = system: MCF7
[16] = system: MDA-MB-231
[17] = system: MDA-MB-435
[18] = system: SF-295

Measured: GI50

C=CCC12CCC(=O)C=C1CCC1(C2)OCCO1 (stereo not drawn)
inactive: [1] > 100 µM | [2] > 100 µM | [3] > 100 µM | [4] > 100 µM | [5] > 100 µM | [6] > 100 µM | [7] > 100 µM | [8] > 100 µM | [9] > 100 µM | [10] > 100 µM | [11] > 100 µM | [12] > 100 µM

N#Cc1c(O)c2ccccc2[nH]c1=O
inactive: [1] > 100 µM | [2] > 100 µM | [3] > 100 µM | [4] > 100 µM | [13] > 100 µM | [5] > 100 µM | [6] > 100 µM | [14] > 100 µM | [7] > 100 µM | [15] > 100 µM | [16] > 100 µM | [17] > 100 µM | [8] > 100 µM | [9] > 100 µM | [18] > 100 µM | [10] > 100 µM | [11] > 100 µM | [12] > 100 µM

NN1C(=O)C(CCO)S/C1=N/N=C1/SC(CCO)C(=O)N1N (stereo not drawn)
inactive: [1] > 100 µM | [2] > 100 µM | [3] > 100 µM | [4] > 100 µM | [5] > 100 µM | [6] > 100 µM | [14] > 100 µM | [7] > 100 µM | [8] > 100 µM | [9] > 100 µM | [18] > 100 µM | [10] > 100 µM | [11] > 100 µM | [12] > 100 µM

CCOP(=O)(OCC)OC(C#N)c1ccc(-c2ccccc2)cc1 (stereo not drawn)
inactive: [1] 16.9 µM | [2] 18.4 µM | [3] 33 µM | [4] 22.4 µM | [5] 49 µM | [6] 34.5 µM | [14] 13.7 µM | [7] 18.4 µM | [8] 31.6 µM | [9] 21.1 µM | [18] 70.6 µM | [10] 36.3 µM | [11] 27.7 µM | [12] 20.8 µM

O=C(/C=C/c1ccccc1)CC1OC(=O)c2ccccc21 (stereo not drawn)
inactive: [1] > 100 µM | [2] > 100 µM | [3] > 100 µM | [5] > 100 µM | [6] > 100 µM | [14] 49.7 µM | [7] > 100 µM | [8] 22.5 µM | [9] > 100 µM | [18] 85.5 µM | [10] 46.3 µM | [11] 45.5 µM | [12] 81.8 µM

CC(C)(C)C(=O)C1CC(=O)c2ccccc2C1=O (stereo not drawn)
inactive: [1] 32.6 µM | [2] 38.2 µM | [3] 44.7 µM | [4] 39.6 µM | [5] 32.4 µM | [6] 25.2 µM | [14] 40.8 µM | [7] 39.3 µM | [8] 35.2 µM | [9] 33 µM | [18] 36.2 µM | [10] 10.6 µM | [11] 5.98 µM | [12] 18.2 µM

CCOc1ccc(NC(=O)/C(CC(=O)c2c[n+]([O-])c3ccccc3[n+]2[O-])=N\OCCCc2ccccc2)cc1
inactive: [1] > 100 µM | [2] > 100 µM | [3] > 100 µM | [4] > 100 µM | [5] > 100 µM | [6] > 100 µM | [7] > 100 µM | [8] 44.9 µM | [9] > 100 µM | [18] > 100 µM | [10] > 100 µM | [11] > 100 µM | [12] > 100 µM

COc1cc2ccc3c4ccccc4cnc3c2cc1OC
inactive: [1] > 100 µM | [2] > 100 µM | [3] > 100 µM | [4] > 100 µM | [5] > 100 µM | [6] > 100 µM | [14] > 100 µM | [7] > 100 µM | [8] > 100 µM | [9] > 100 µM | [18] > 100 µM | [10] > 100 µM | [11] > 100 µM | [12] > 100 µM

C/C(=N/NC(=O)C[N+](C)(C)C)C(CN(C)C)C(=O)Nc1ccccc1 (stereo not drawn)
inactive: [1] > 100 µM | [2] > 100 µM | [3] > 100 µM | [4] > 100 µM | [5] > 100 µM | [6] > 100 µM | [14] > 100 µM | [7] > 100 µM | [8] > 100 µM | [9] > 100 µM | [18] > 100 µM | [10] > 100 µM | [11] > 100 µM | [12] > 100 µM

COc1cccc2[s+]snc12
inactive: [1] 33.6 µM | [2] 77.6 µM | [3] 47.8 µM | [4] 66.1 µM | [5] > 100 µM | [6] 61.7 µM | [14] 33.6 µM | [7] > 100 µM | [8] > 100 µM | [9] 43.9 µM | [18] 46.3 µM | [10] 27.2 µM | [11] 69.3 µM | [12] 30.1 µM

COc1cc(-c2c(C)c(C)nc(OC)c2C#N)cc(OC)c1OC
inactive: [1] > 100 µM | [2] > 100 µM | [3] > 100 µM | [5] > 100 µM | [6] > 100 µM | [7] > 100 µM | [8] 24.9 µM | [9] 61 µM | [18] 53.6 µM | [10] > 100 µM | [11] 44.2 µM | [12] 82.2 µM

CC1(C)COC(c2cccnc2/C=N/O)=N1
inactive: [1] > 100 µM | [2] > 100 µM | [3] > 100 µM | [4] > 100 µM | [5] > 100 µM | [6] > 100 µM | [14] > 100 µM | [7] > 100 µM | [8] > 100 µM | [9] > 100 µM | [18] > 100 µM | [10] > 100 µM | [11] > 100 µM | [12] > 100 µM

Cc1cc(N(CCC#N)CCC#N)ccc1/C=C1N=C(/C=C\c2ccccc2)N(NC(=O)CC(=O)Nc2ccccc2Cl)C\1=O
inactive: [1] > 100 µM | [2] > 100 µM | [3] > 100 µM | [4] > 100 µM | [6] > 100 µM | [14] > 100 µM | [7] > 100 µM | [8] > 100 µM | [9] > 100 µM | [18] > 100 µM | [10] > 100 µM | [11] > 100 µM | [12] > 100 µM

O=C(O)[C@@H]1OCCOCCO[C@@H](C(=O)O)[C@H](C(=O)O)OCCOCCO[C@H]1C(=O)O
inactive: [1] > 100 µM | [2] > 100 µM | [3] > 61.8 µM | [4] > 100 µM | [5] > 100 µM | [6] > 100 µM | [14] > 71.3 µM | [7] > 100 µM | [8] > 100 µM | [9] > 100 µM | [18] > 100 µM | [10] > 100 µM | [11] 97.9 µM | [12] > 100 µM
